“Also recorded” adds a separate entry of the source.
How the values were obtained:
[1] = tested on: IFNg producing CD8^+ T (Tc1) cells; details: naïve mice; cited from earlier work
CD8+ and CD4+ T cells = test: Flow cytometry of T cells in mLN, spleen and tumor after oral gavage with E. hirae and CTX; assay type: in vivo, mice; details: for accumulation of CD8+ T cells in mLN and spleen: mLN after 1 week, spleen after 2 weeks
Procedure: FIG. 7. […] (A) Experimental setting. […] One day post-CTX, a second oral gavage with E. hirae is performed. 72 hours post-CTX, CD4+ and CD8+ T cells are isolated from mesenteric lymph node (mLN). Percentage of CD8+(B) and CD4+(C) T cells in mLN after oral gavage with E. hirae 708 or 13144 and CTX treatment. (D) Experimental setting. […] 5 days after the first oral gavage, mice are treated with CTX. One week post-CTX, CD8+ T cells are isolated from spleen. Percentage of CD8+ T cells (E) and CCR9+CXCR3+CD8 T cells (F) in spleen after oral gavage with E. hirae 708 or 13144 and CTX treatment.

colon mucosae = test: Colon inflammatory infiltrates (HES staining) after E. hirae gavage and CTX; assay type: in vivo, mice; details: for inflammatory infiltrates of colon mucosae: mice without tumor, oral gavages + CTX, versus without commensals
Procedure: FIG. 11. Effects of EH on gut inflammation and role of CD8+ T cells in this inflammation: EH-specific CTL amplified in the mLN may return into the lamina propria. (A) Experimental setting. […] Then, we performed oral gavage with E. hirae (708 or 13144) and anti-CD8 injection (200 μg per mice) every three days for a total of 4 gavages/injections. 5 days after the first oral gavage, mice are treated with CTX. One week post-CTX, colon is removed for Hematoxylin Eosin Staining (HES). (B) Extent of inflammatory infiltrates in colon of mice colonized with E. hirae and treated with anti-CD8 ablating Abs and CTX.
FIG. 18. […] (A) Experimental setting. […] Then we performed oral gavage with E. hirae (708 or 13144) every three days for a total of 4 gavages. 5 days after the first oral gavage, mice were treated with CTX. One week post-CTX, colons are removed to be embedded in PPFE for Hematoxylin, Eosin and Safran staining (HES). (B) Extent of inflammatory infiltrates in colons of mice bearing MCA205 tumors or not and colonized with E. hirae and treated with CTX. Student t′-test statistical analyses: ** p<0.01.

MCA205 sarcoma = test: Prophylactic vaccination with pulsed DCs followed by MCA205 challenge; assay type: in vivo, C57BL/6 mice; details: poly I:C-activated BM-DC pulsed with peptides (20 μg/ml) or heat-inactivated bacteria, s.c. twice 10 days apart
Procedure: FIG. 16. Protocol of immunization with DC pulsed with TMP peptides. After DCs differentiation (with GM-CSF and IL-4 during 6 days), we incubated them with poly I:C (10 μg/ml) overnight before the addition of peptide (1 hour) or heat-inactivated bacteria (6 hours). These DCs are injected subcutaneous on right flank at day 0 and 10. […] We constitute 4 groups, one group without DCs, one group with DCs pulsed with 20 μg/ml of irrelevant peptides (gr1) or TMP peptides or 13144 heat-inactivated bacteria. Mean tumor sizes over time (A), each mouse tumor kinetics for each group (B), and the detailed comparison in between groups at the two last time points before sacrifice for MCA205 are shown (C), each dot representing one mouse. MC38 related data are not shown.
FIG. 17. […] Tumor growth of MCA205 in mice vaccinated with DCs pulsed with gr1 peptides, TMP peptides and E. hirae 13144. (A) Mean±SEM of tumor sizes at different kinetics. (B) Tumor growth kinetics for each individual group of 5-10 mice. (C) Tumor sizes and statistical differences at time of sacrifice.
A-B. Prophylactic vaccinations. […] C-D. Therapeutic settings.
After DCs differentiation, these DCs were activated with poly I:C (10 μg/ml, Invivogen) overnight before infection with heat-inactivated (2 h at 65° C.) bacterial strains (MOI 10) or pulsed with peptides (20 μg/ml, peptide 2.0). […]

[2] = tested on: TMP1-specific CD8+ T cells
ileal bacterial colonies = test: Culturomics and TMP PCR of ileal content after gavage with E. hirae 13144 and CTX; assay type: in vivo, C57BL/6 mice; details: 76 colonies, oral gavage + systemic CTX
Description: . […] Also refer to FIG. 39.
PCR amplification of the TMP sequence (refer to FIG. 36) in each colony growing after seeding of ileal content in aerobic conditions to isolate Gram+ bacteria. A photograph of each agarose electrophoresis gel is shown for each animal. A depicts the results in 5 naive mice and B depicts the findings after CTX+oral gavage with the phage encoding bacterium. Each vertical lane corresponds to one bacterium identified in MALDI-TOF. Initials are detailed in the lower part of panel A. The positive control (Ctl+) represents the DNA of E. hirae 13144.
We cultivated the stools (of patients) or ileal material (mice) after several dilutions in aerobic conditions and permissive medium to allow isolation of enterococci colonies (according to a procedure described in (Samb-Ba et al., 2014)). We performed a PCR of the TMP sequence in each single cultivable Enterococcus colony. One colony was put in 100 μl of nuclease-free water to release the bacterial DNA and PCR was performed with 5 μl of DNA, 12.5 μl of PCR master mix (Thermoscientific), 5 μl of nuclease-free water and 1.25 μl of each TMP primers (20 µM). […] The sequence of primers are: forward 5′-[…]-3′ ID No: reverse 5′-(SEQ 191) and […]-3′ (SEQ ID No: 192) (amplicon 1026 bp). […]

Substance	immunogenic and oncomicrobiotic properties of the isolate [1]	accumulation of CD8+ T cells in mLN and spleen (CD8+ and CD4+ T cells)	inflammatory infiltrates of colon mucosae (colon mucosae)	protection against MCA205 tumor challenge (MCA205 sarcoma)	splenic CD8+ T cells recognizing the TMP1 peptide ([2]; day 12 following CTX/E. hirae 13144 regimen, FIG. 27F)	enrichment of TMP1-specific CTLs in the TC1 subset harboring CCR9 ([2]; spleens from naive and tumor bearers, tumor draining lymph nodes)	in vivo transduction of by-stander Enterococci by the phage (ileal bacterial colonies)	CD4+ T cell pool in the mLN (CD8+ and CD4+ T cells; 72 hours post-CTX)	accumulation of CD8+CCR9+CXCR3+ T cells in spleen and tumor beds (CD8+ and CD4+ T cells; listed as EH13144)	accumulation of CD8+ T cells in mLN and spleen (CD8+ and CD4+ T cells; listed as E. hirae 13144)	accumulation of CD8+ T cells in mLN and spleen (CD8+ and CD4+ T cells; listed as EH13144)	colon inflammatory lesions in tumor bearers (colon mucosae; mice bearing MCA205 sarcoma versus naive, listed as E. hirae 13144)
Enterococcus hirae 708 [Peptide 708, reference compound]	induced IFNg producing CD8^+ T (Tc1) cells	capable of inducing the accumulation of CD8+ T cells	more infiltrated									
Enterococcus hirae strain 13144 [Peptide 13144]			more infiltrated	reduced tumor growth	Up to 1%	3-5 fold	E. gallinarum was the only by-stander Enterococci transduced	amplified	induce accumulation; also recorded: Sustained accumulation	Increased accumulation	capable of inducing the accumulation of CD8+ T cells	markedly reduced; also recorded: prevents the gut inflammatory lesions

Reference: patent US12102672B2, “Immunogenic sequences from a phage tail length tape measure protein, bacteria expressing the same and their use in treating a cancer” (INSTITUT GUSTAVE ROUSSY, priority 2017, dated 2024)
